Assay results: patent publication US20250313828A1, “SYNTHETIC GENETIC PLATFORM IN EUKARYOTE CELLS AND METHODS OF USE” (University of Washington, priority 2022, published 2025)
Entries after “also recorded” stand apart in the source; their conditions may differ.

What was measured:
auxin promoter::Venus = experiment: Repression activity of H1 helices fused to IAA3 in the AtARCSc, fluorescence flow cytometry; assay type: cell-based, Saccharomyces cerevisiae; details: for Repression activity of H1-HA-IAA3 library constructs: H1-HA-IAA3 expressed off a plasmid, static ARC components integrated at URA3
[1] = assay type: cell-based, Saccharomyces cerevisiae
Procedure: Western Blot. […] Cells were harvested by centrifugation. Cells were lysed by vortexing for 5 min in the presence of 200 μl of 0.5-mm diameter acid washed glass beads and 200 μl SUMEB buffer (1% SDS, 8 M urea, 10 mM MOPS pH 6.8, 10 mM EDTA, 0.01% bromophenol blue, 1 mM PMSF) per one OD unit of original culture. Lysates were then incubated at 65° C. for 10 min and cleared by centrifugation prior to electrophoresis and blotting. Antibodies: anti-HA-HRP (REF-12013819001, Clone 3F10, Roche/Millipore Sigma, St. Louis, MO), anti-PGK1 (ab113687, AbCam). Protein concentrations were quantified using ImageJ, with PGK1 protein measured in each strain to normalize protein concentrations across strains. To compare protein concentrations to […]1, these were then normalized to TPL concentration using this equation: ([[…]1 normalized protein concentrations were plotted on a Log 2 scale.

H1 sequence of TBL1 = molecular target: T1, H1 sequence of TBL1 (Homo sapiens, UniProt O60907); experiment: Small molecule testing on the yeast H1 platform, TBL1 helix fused to IAA3; assay type: cell-based; details: yeast cultured 4 hours with compound, flow cytometry, absence of Beta-catenin
T1 construct: expressed in transfected cells; host or cells: Saccharomyces cerevisiae reporter strain (AFB2, ARF19 and auxin promoter::Venus integrated at URA3)
Procedure: (§1) Yeast were grown overnight from a dilution of […] at 30° C. and 250 rpm. When cell density reached […] either control (DMSO) or small molecule BC2059 were added at the indicated concentration, and cultured for 4 hours before being measured for fluorescence by flow cytometry. Each data point represents three independent time-course flow cytometry experiments of the helices indicated, all fused to IAA3. Every point represents the average fluorescence of at least 10,000 individually measured yeast cells (a.u.: arbitrary units). Error bars are standard error.

TPL sequence = molecular target: T2, TPL sequence (Arabidopsis thaliana, UniProt Q94AI7); experiment: Small molecule testing on the yeast H1 platform, TPL helix fused to IAA3; assay type: cell-based; details: yeast cultured 4 hours with compound, flow cytometry
T2 construct: a construct carrying only the first 18 amino acids of Helix 1 of the LisH domain fused to IAA3; expressed in transfected cells; host or cells: Saccharomyces cerevisiae reporter strain (AFB2, ARF19 and auxin promoter::Venus integrated at URA3)
Procedure: as §1

mutant TBL1 H1 sequence = experiment: Cancer variant detection using the yeast H1 platform; assay type: cell-based, Homo sapiens (Human); details: 500 nM, 4 hours, compared with wild type TBL1 H1
Procedure: as §1, with “of the TBL1 or control helices indicated,” for “of the helices indicated,”
Yeast carrying either the wild type or mutant TBL1 H1 sequence were cultured in the presence or absence of 500 nM Tegatrabetan and fluorescence measured by flow cytometry. […] This approach is particularly relevant to personalized medicine for a given mutation in a patient.

[2] = test system: synthetic auxin reporter DR5-Venus; experiment: H1 repression assay, transient transformation in tobacco leaves; assay type: in vivo, Nicotiana benthamiana; details: transient expression in tobacco, IAA3 EAR motif mutated to AxAxA
Procedure: Reporter activation was measured in four separate leaf injections (biological replicates) in two days of injection (boxplots illustrated in FIG. 5C are pooled data from one day, with two replicates divided on right and left panels). Each leaf was excised at 8 locations and measured for Venus fluorescence using a plate scanner. pDR5:Venus: the synthetic DR5 auxin promoter (Ulmasov et al., Plant Cell 9, 1963-1971, 1997) driving Venus; ARF19: […]; […] Plant growth. […] Strain density was normalized to an OD600 of 1 for each strain in the final mixture of strains before injection into tobacco leaves. Leaves were removed, and eight different regions were excised using a hole punch, placed into a 96-well microtiter plate with 100 μl of water. Each leaf punch was scanned in a 4×4 grid for yellow and red fluorescence using a plate scanner (Tecan Spark, Tecan Trading AG, Switzerland). Fluorescence data was quantified and plotted in R (ggplots2).

Row | Molecule | Repression activity of H1-HA-IAA3 library constructs (auxin promoter::Venus) | Protein accumulation / stability [1] | other results
1 | 1853M: cancer variant H1 KELLLLMRNHLIS, SEQ ID NO: 85 | slightly decrease | slightly increasing protein accumulation | 
2 | C[C@@H]1C[C@H](C)CN(S(=O)(=O)c2ccc3c(c2)C(=NO)c2cc(S(=O)(=O)N4C[C@H](C)C[C@H](C)C4)ccc2C3=NO)C1 [BC2059, Tegavivint] |  |  | Effect on TBL1's repressive activity on transcription (H1 sequence of TBL1): dose-dependent interference; Effect on TPL H1 repression (TPL sequence): unaffected; Responsiveness of TBL1 H1 cancer variant mutations to the compound (mutant TBL1 H1 sequence): Certain cancer mutants were less sensitive to treatment
3 | DmGID8: H1 tested in tobacco; probably H1-DmDMEI, ADLNRLVMNYLVT, SEQ ID NO: 38 (listed as Drosophila sechellia) |  |  | Repression of reporter in planta [2]: not functional
4 | F10A: TPL H1 mutant RELVALILQFLDE, SEQ ID NO: 121 |  |  | Time course flow cytometry following auxin addition (de-repression) (auxin promoter::Venus; AtARCSc in yeast, auxin (IAA-10 μM) added): strengthened the durability of repression H1, converting it into an auxin-insensitive repression domain; also recorded: loss of auxin sensitivity; Repression of reporter in planta [2]: improvements in repression in tobacco compared to wild type
5 | H856Y: cancer variant H1 KELLLLIRNYLIS, SEQ ID NO: 87 | not significantly affected | not significantly affected | 
6 | HsLIS1: H1 sequence DELNRAIADYLRS, SEQ ID NO: 63 (listed as Homo sapiens) | repressive | well expressed | 
7 | HsTBL1X Y64C: cancer variant H1 DEVNFLVCRYLQE, SEQ ID NO: 81 | strongest repressor | highest accumulation | 
8 | L851F: cancer variant H1 KELLFLIRNHLIS, SEQ ID NO: 84 | dramatically reduces | dramatically reduces | 
9 | PfGID8: H1 tested in tobacco; perhaps H1-BCR36DRAFT, KDLNKLIMNYLVI, SEQ ID NO: 36 (listed as Chytriomyces confervae) |  |  | Repression of reporter in planta [2]: less
10 | R6E: TPL H1 mutant EELVFLILQFLDE, SEQ ID NO: 91 | loss of repression | negative effect on protein accumulation | 
11 | R6N: TPL H1 mutant NELVFLILQFLDE, SEQ ID NO: 94 | loss of repression | negative effect on protein accumulation | 
12 | R6V: TPL H1 mutant VELVFLILQFLDE, SEQ ID NO: 106 | loss of repression | negative effect on protein accumulation | 
13 | R14W: cancer variant H1 DEVNFLVYWYLQE, SEQ ID NO: 83 | higher repression rates | reductions in protein abundance | 
14 | R65Q: cancer variant H1 DEVNFLVYQYLQE, SEQ ID NO: 82 | higher repression rates | reductions in protein abundance | 
15 | R854Q: cancer variant H1 KELLLLIQNHLIS, SEQ ID NO: 86 | increase | slightly increasing protein accumulation | 
16 | SpHIF2: H1 sequence NQVNYIIWRYLKE, SEQ ID NO: 17 (Schizosaccharomyces pombe) | not detected | very poor protein stability | 
